Data taken from ChEMBL document CHEMBL1130811, “An enantioselective fluorimetric assay for alcohol dehydrogenases using albumin-catalyzed beta-elimination of umbelliferone” (Bioorg Med Chem Lett, 1998).

Key:
[1] = Specificity constant of the BSA-catalyzed deprotonation of compound at pH 9; type: ADME, Bos taurus; settings: cattle
[2] = test system: alcohol dehydrogenase (Lactobacillus kefiri); experiment: Compound was tested for enantioselectivity of alcohol dehydrogenase in lactobacillus kefir at a concentration of 50 ug/mL.
[3] = test system: alcohol dehydrogenase (Saccharomyces cerevisiae); experiment: Compound was tested for enantioselectivity of alcohol dehydrogenase in yeast at a concentration of 100 ug/mL.
[4] = test system: alcohol dehydrogenase (Thermoanaerobacter brockii); experiment: Compound was tested for enantioselectivity of alcohol dehydrogenase in thermoanaerobium brockii at a concentration of 5 ug/mL.
[5] = target: Alcohol dehydrogenase (Equus caballus) (UniProt P00327+P00328); experiment: Compound was tested for enantioselectivity of alcohol dehydrogenase in horse liver at a concentration of 10 ug/mL.
[6] = Specificity constant of the bovine serum albumin catalyzed reaction expressed as (kcat/KM)/kuncat; type: ADME, Bos taurus; settings: cattle
[7] = Half life in presence of 2 mg/mL BSA at pH 8.8; type: ADME, Bos taurus; settings: cattle, bovine serum albumin solution
[8] = Michaelis-Menten kinetics of the bovine serum albumin catalyzed reaction of the compound; type: ADME, Bos taurus; settings: cattle
[9] = Rate constant of the bovine serum albumin catalyzed reaction of the compound; type: ADME, Bos taurus; settings: cattle

SMILES: c1cnoc1 [ISOXAZOLE]
- (kcat/KM)/kuncat [1]: 3600000 M⁻¹

SMILES: C[C@@H](O)CCOc1ccc2ccc(=O)oc2c1
- Selectivity [2]: 0.000773 µM/s
- Selectivity [3]: 3.31e-06 µM/s
- Selectivity [4]: 6.61e-06 µM/s
- Selectivity [5]: 0.00014 µM/s

SMILES: CC(=O)CCOc1ccc2ccc(=O)oc2c1
- (kcat/KM)/kuncat [6]: 2600000 M⁻¹
- half-life [7]: 4 min
- Km [8]: 150 µM
- k cat [9]: 0.0078 s⁻¹
- k cat/Kuncat [9]: 390

SMILES: C[C@H](O)CCOc1ccc2ccc(=O)oc2c1
- Selectivity [2]: 2.67e-05 µM/s
- Selectivity [3]: 0.000599 µM/s
- Selectivity [4]: 0.00132 µM/s
- Selectivity [5]: 0.00246 µM/s
